How the values were obtained:
[1] = tested on: zebra fishes (AB strain Danio rerio); test: Whitening activity analysis in vivo (zebra fish melanin); conditions: 20 mM; immersed forty-eight hours
Source text: The test uses zebra fishes (AB strain Danio rerio), in which fish edge is above four months, as test brood fishes, and the fishes are bred in an acrylic water tank having a filter and a circulation system. Water temperature is controlled at 28.5 degrees Celsius, and light-dark cycle is respectively controlled at fourteen and ten hours.
The medicine to be tested must be dissolved in 100% DMSO solution, and finally concentration must also concern DMSO and medicine concentration.
Embryos that have been fertilized for nine hours is taken and injected into a 96 well culture dish, and three embryos and 100 μl Hank's buffer are disposed in each well. 100 μl taken from the prepared medicine is injected into each well, and after adequately and uniformly mixing the mixture, an orifice plate is covered to avoid draining water content away to change the concentration. […]
Obtained fish images are opened by image processing software (Image J 1.43 g; National Institute of Health, Bethesda, Md., U.S.A.), and under ranges where the minimum threshold is set at 0, and where the maximum threshold is set at 85, melanin of each group of zebra fishes is performed with quantitative analysis.

[2] = tested on: Mushroom tyrosinase; test: Mushroom tyrosinase inhibition capability analysis; assay type: biochemical; conditions: positive control, 100 μM
Protocol: In a 96 well plate, 70 μl PBS, 20 μl specimen solution having different concentrations is added into each pore, and the mixture is uniformly mixed. Next, 10 μl 12U tyrosinase is added to place the plate in the cultivation chest at 37 degrees Celsius to react for thirty minutes. 10 μl 15 mM L-dopa is further added, and after continuously placing the plate in the cultivation chest to react for thirty minutes, the variance of absorbance is measured at 492 nm wavelengths. By taking H2O or 50% EtOH as the control group, the anti-oxidation rate of the object to be tested is obtained by inhibition of tyrosinase % (IT %) as the following formula. When peroxidation rate of lipid inhibition is higher, antioxidative function is stronger. Inhibition of tyrosinase %, IT %=[1−(absorbance of sample at 492 nm)/(absorbance of the control group that is not added with samples at 492 nm)]×100.

Structure (SMILES) | melanin content of zebra fishes [1] | Mushroom tyrosinase inhibition capability [2]
OC[C@H]1O[C@@H](Oc2ccc(O)cc2)[C@H](O)[C@@H](O)[C@@H]1O [arbutin] | 50% | 
O=C1O[C@H]([C@@H](O)CO)C(O)=C1O [vitamin C] |  | 38.0 ± 0.4%

— US20140294745A1, “CORAL EXTRACT FOR SKIN WHITENING, MOISTURE RETENTION, ELASTICITY IMPROVEMENT, ANTI-INFLAMMATION AND OCCLUSION OF WOUNDS AND EXTRACTING METHOD THEREOF” (UNI-PRESIDENT BIOTECH CO., LTD., priority 2013, published 2014)
